The record followed here is patent US8440708B2, “Triazole-substituted arylamides as P2X3 and P2X2/3 antagonists” (Roche Palo Alto LLC, priority 2007, dated 2013).

Assay [1] has as its target T1, human P2X2/3 receptor (Homo sapiens, UniProt P56373+Q9UBL9).
T1 construct: expressed in transfected cells; host or cells: CHO-K1
T1 sequence (Q9UBL9 1-471): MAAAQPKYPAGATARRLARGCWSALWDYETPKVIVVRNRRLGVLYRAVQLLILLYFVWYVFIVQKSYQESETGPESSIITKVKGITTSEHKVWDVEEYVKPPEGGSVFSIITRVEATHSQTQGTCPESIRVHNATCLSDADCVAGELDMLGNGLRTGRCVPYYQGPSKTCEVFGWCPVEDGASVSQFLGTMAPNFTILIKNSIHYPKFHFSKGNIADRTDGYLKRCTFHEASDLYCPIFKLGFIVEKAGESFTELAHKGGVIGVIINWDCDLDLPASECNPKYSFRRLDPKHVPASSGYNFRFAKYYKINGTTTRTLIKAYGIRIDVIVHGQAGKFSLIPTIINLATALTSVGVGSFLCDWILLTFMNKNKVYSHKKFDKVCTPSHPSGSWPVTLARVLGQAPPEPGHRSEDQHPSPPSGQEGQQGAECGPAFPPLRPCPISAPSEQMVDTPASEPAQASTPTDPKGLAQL
T1 sequence (P56373 1-397): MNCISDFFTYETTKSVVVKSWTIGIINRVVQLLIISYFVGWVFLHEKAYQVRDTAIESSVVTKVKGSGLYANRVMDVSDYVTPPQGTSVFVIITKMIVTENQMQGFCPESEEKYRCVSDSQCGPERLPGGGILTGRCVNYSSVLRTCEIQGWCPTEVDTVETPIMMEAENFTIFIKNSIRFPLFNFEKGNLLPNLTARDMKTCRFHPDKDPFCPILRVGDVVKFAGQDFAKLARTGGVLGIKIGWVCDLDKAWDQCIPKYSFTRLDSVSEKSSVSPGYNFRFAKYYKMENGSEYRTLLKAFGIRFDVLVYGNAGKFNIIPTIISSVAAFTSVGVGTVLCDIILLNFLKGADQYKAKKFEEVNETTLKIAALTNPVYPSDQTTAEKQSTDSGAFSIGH
Nature of the assay: P2X3/P2X2/3 FLIPR (Fluorometric Imaging Plate Reader) Assay, P2X2/3. Format: cell-based. The settings on record: CHO-K1 cells transfected with human P2X2/3; agonist α,β-meATP 5 μM; Table 1; read-out: P2X2/3 pKi (converted). The essentials:
(§1)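 Read-out: peak Fluo-3 fluorescence (ex 488, em 510-570 nm) after α,β-meATP, 1 μM final on rat P2X3 or 5 μM on human P2X2/3, in transfected CHO-K1 cells. Compounds were preincubated 20 min at RT. Inhibition curves came from nonlinear regression.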

Assay [2] deals with T2, rat P2X3 receptor (Rattus norvegicus, UniProt P49654).
T2 construct: expressed in transfected cells; host or cells: CHO-K1
T2 sequence (P49654 1-397): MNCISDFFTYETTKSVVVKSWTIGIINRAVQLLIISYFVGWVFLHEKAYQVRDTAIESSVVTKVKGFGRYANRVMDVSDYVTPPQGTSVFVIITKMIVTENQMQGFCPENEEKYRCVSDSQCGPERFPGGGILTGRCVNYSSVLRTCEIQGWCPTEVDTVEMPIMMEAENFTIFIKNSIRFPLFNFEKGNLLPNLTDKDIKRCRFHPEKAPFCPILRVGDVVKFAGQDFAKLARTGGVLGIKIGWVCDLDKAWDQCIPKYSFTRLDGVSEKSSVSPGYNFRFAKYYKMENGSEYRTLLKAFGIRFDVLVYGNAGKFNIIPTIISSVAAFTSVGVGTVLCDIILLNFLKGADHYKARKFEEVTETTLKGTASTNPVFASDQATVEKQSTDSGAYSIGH
Nature of the assay: P2X3/P2X2/3 FLIPR (Fluorometric Imaging Plate Reader) Assay, P2X3. The conditions noted are these: CHO-K1 cells transfected with rat P2X3; agonist α,β-meATP 1 μM; Table 1; read-out: P2X3 pKi (converted). Format: cell-based. The procedure, abridged:
as §1

As to `COC(C)c1ncnn1-c1cc(C(=O)NCc2cnc(C)cn2)cc(-c2ccc(C)cn2)c1` (stereo not drawn) [Compound 133, 3-[5-(1-Methoxy-ethyl)-[1,2,4]triazol-1-yl]-N-(5-methyl-pyrazin-2-ylmethyl)-5-(5-methyl-pyridin-2-yl)-benzamide], the Ki in assay [1] was 0.295 µM; in assay [2], 0.011 µM.
On the same counts, the results for `Cc1ccc(-c2cc(-n3ncnc3C(C)C)cc(C(=O)NC(C)c3cnccn3)c2F)nc1` (stereo not drawn) [Compound 173, 2-Fluoro-5-(5-isopropyl-[1,2,4]triazol-1-yl)-3-(5-methyl-pyridin-2-yl)-N-(1-pyrazin-2-yl-ethyl)-benzamide] are 0.0851 µM and 0.00398 µM.
On the same counts, the results for `Cc1cnc(CNC(=O)c2cc(-c3ccc(Cl)cn3)cc(-n3ncnc3C(C)(C)C)c2)cn1` [Compound 84, 3-(5-tert-Butyl-[1,2,4]triazol-1-yl)-5-(5-chloro-pyridin-2-yl)-N-(5-methyl-pyrazin-2-ylmethyl)-benzamide] are 0.427 µM and 0.0141 µM.
Regarding `CC(NC(=O)c1cc(-c2ccc(Cl)cn2)cc(-n2ncnc2C(F)(F)F)c1)c1cnccn1` (stereo not drawn) [Compound 79, 3-(5-Chloro-pyridin-2-yl)-N-(1-pyrazin-2-yl-ethyl)-5-(5-trifluoro-methyl-[1,2,4]triazol-1-yl)-benzamide], the Ki in assay [1] is 0.372 µM; in assay [2] it was 0.00851 µM.
As to `Cc1ccc(-c2cc(C(=O)N[C@@H](C)CO)cc(-n3ncnc3C3CC3)c2)nc1` [Compound 59, 3-(5-Cyclopropyl-[1,2,4]triazol-1-yl)-N-(2-hydroxy-1-methyl-ethyl)-5-(5-methyl-pyridin-2-yl)-benzamide], the Ki in assay [1] is 6.17 µM; in assay [2], 0.0776 µM.
On to `COCCc1ncnn1-c1cc(C(=O)N[C@@H](C)CO)cc(-c2ccc(C)cn2)c1` [Compound 148, N-((S)-2-Hydroxy-1-methyl-ethyl)-3-[5-(2-methoxy-ethyl)-1-[1,2,4]triazol-1-yl]-5-(5-methyl-pyridin-2-yl)-benzamide], for which the Ki in assay [1] was 10 µM; in assay [2] it was 0.0603 µM.
For `COc1nnc(C(C)C)n1-c1cc(C(=O)NCc2cnc(C)cn2)cc(-c2ccc(C)cc2)c1` [Compound 138, 5-(3-Isopropyl-5-methoxy-[1,2,4]triazol-4-yl)-4′-methyl-biphenyl-3-carboxylic acid (5-methyl-pyrazin-2-ylmethyl)-amide], in that order: 4.17 µM and 0.724 µM.
On to `CC(NC(=O)c1cc(-c2ccc(Cl)cn2)cc(-n2ncnc2C(C)(C)C)c1)c1cnccn1` (stereo not drawn) [Compound 83, 3-(5-tert-Butyl-[1,2,4]triazol-1-yl)-5-(5-chloro-pyridin-2-yl)-N-(1-pyrazin-2-yl-ethyl)-benzamide], for which the Ki in assay [1] was 0.115 µM; in assay [2], 0.0123 µM.
For `Cc1ccc(-c2cc(C(=O)NC3CC3)cc(-n3ncnc3C(C)N(C)C)c2)cc1` (stereo not drawn) [Compound 104, 5-[5-(1-Dimethylamino-ethyl)-[1,2,4]triazol-1-yl]-4′-methyl-biphenyl-3-carboxylic acid cyclopropylamide], in that order: 0.407 µM and 0.00776 µM.
On the same counts, the results for `CC(C)Oc1ncnn1-c1cc(C(=O)NC(C)c2cnccn2)cc(-c2ccc(Cl)cc2)c1` (stereo not drawn) [Compound 52, 4′-Chloro-5-(5-isopropoxy-[1,2,4]triazol-1-yl)-biphenyl-3-carboxylic acid (1-pyrazin-2-yl-ethyl)-amide] are 0.891 µM and 0.0141 µM.
On the same counts, the results for `Cc1ccc(-c2cc(C(=O)NC(C)CO)cc(-n3ncnc3C(C)C)c2)cc1` (stereo not drawn) [Compound 16, 5-(5-Isopropyl-[1,2,4]triazol-1-yl)-4′-methyl-biphenyl-3-carboxylic acid (2-hydroxy-1-methyl-ethyl)-amide] are 0.295 µM and 0.00355 µM.
Regarding `Cc1ccc(-c2cc(C(=O)NC(C)c3cnccn3)cc(-n3ncnc3C)c2)nc1` (stereo not drawn) [Compound 100, 3-(5-Methyl-pyridin-2-yl)-5-(5-methyl-[1,2,4]triazol-1-yl)-N-(1-pyrazin-2-yl-ethyl)-benzamide], the results for the Ki in assay [1] and in assay [2] were 2.04 µM and 0.0102 µM, respectively.
